Reference: the supplement of paper PMC10307832

Compound: C1CCC(CC1)N(CCNCCC2=C3C(=C(C=C2)O)NC(=O)CO3)C(=O)CCNCCC4=CC(=C(C=C4)Cl)Cl [AZ505] + C[C@]1(O)C[C@@H](c2nc(-c3ccc4ccc(-c5ccccc5)nc4c3)c3c(N)nccn32)C1 [Linsitinib] (partner 1 µM)
Test: relative viability (nuclei count vs DMSO), 5 days (fraction); higher = more cells survive
Details: first compound 0.08 µM
Procedure, shortened: (§1)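 Nuclei were stained with Hoechst during a one-step fixation (final 0.05% Triton X-100, 1% formaldehyde, 1 ug/ml Hoechst) carried out 5 days after dosing, then counted on 4× images. The cells, lung cancer lines in 1536-well plates, had been dosed by pin tool the day after seeding with one drug alone or a fixed anchor-drug dose plus five library-drug doses (not always all listed) in √10 steps. Relative viability is the nuclei count in treated wells divided by that in vehicle wells, and each value is the median of duplicate plates.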

In order of rising relative viability:
1. ABC-1  0.636
2. NCI-H358  0.733
3. LC-2-ad  0.819
4. NCI-H650  0.847
5. RERF-LC-KJ  0.857
6. NCI-H1975  0.907
7. PC-3 [JPC-3]  0.923
8. EKVX  0.963
9. NCI-H1944  1.15
10. NCI-H1563  1.24

Same assay, conditions: first compound 0.253 µM

In order of rising relative viability:
1. NCI-H358  0.689
2. NCI-H650  0.739
3. RERF-LC-KJ  0.85
4. ABC-1  0.889
5. LC-2-ad  0.901
6. NCI-H1975  0.923
7. PC-3 [JPC-3]  0.935
8. NCI-H1944  1.12
9. EKVX  1.15
10. NCI-H1563  1.32

Same assay, conditions: first compound 0.8 µM

In order of falling relative viability:
1. NCI-H1944  1.23
2. NCI-H1563  1.13
3. EKVX  0.951
4. PC-3 [JPC-3]  0.938
5. ABC-1  0.935
6. RERF-LC-KJ  0.929
7. NCI-H650  0.897
8. LC-2-ad  0.844
9. NCI-H1975  0.783
10. NCI-H358  0.689

Same assay, conditions: first compound 2.53 µM

In order of falling relative viability:
1. NCI-H1563  1.29
2. NCI-H650  1.15
3. EKVX  1.04
4. NCI-H1944  0.922
5. NCI-H1975  0.919
6. ABC-1  0.901
7. RERF-LC-KJ  0.897
8. LC-2-ad  0.883
9. PC-3 [JPC-3]  0.862
10. NCI-H358  0.752

Same assay, conditions: first compound 8 µM

In order of rising relative viability:
1. NCI-H358  0.669
2. ABC-1  0.697
3. LC-2-ad  0.845
4. RERF-LC-KJ  0.902
5. NCI-H650  0.921
6. PC-3 [JPC-3]  0.947
7. NCI-H1975  0.955
8. EKVX  1.06
9. NCI-H1944  1.07
10. NCI-H1563  1.15

Compound: Cn1c(=O)n(-c2ccc(C(C)(C)C#N)cc2)c2c3cc(-c4cnc5ccccc5c4)ccc3ncc21 [Dactolisib] + COc1cccc2cc(-c3nc([C@H]4CC[C@H](C(=O)O)CC4)n4ncnc(N)c34)[nH]c12 [OSI-027] (partner 0.5 µM)
Test: as above
Details: first compound 0.002 µM
Procedure, shortened: as §1

In order of falling relative viability:
1. LC-2-ad  0.938
2. PC-3 [JPC-3]  0.862
3. NCI-H358  0.805
4. NCI-H1563  0.746
5. RERF-LC-KJ  0.699
6. EKVX  0.678
7. NCI-H1975  0.676
8. NCI-H650  0.509
9. ABC-1  0.494
10. NCI-H1944  0.467

Same assay, conditions: first compound 0.006325 µM

In order of falling relative viability:
1. PC-3 [JPC-3]  0.86
2. LC-2-ad  0.844
3. NCI-H1563  0.772
4. NCI-H358  0.683
5. NCI-H1975  0.676
6. EKVX  0.655
7. RERF-LC-KJ  0.604
8. ABC-1  0.519
9. NCI-H650  0.518
10. NCI-H1944  0.418

Same assay, conditions: first compound 0.02 µM

In order of rising relative viability:
1. NCI-H1944  0.418
2. ABC-1  0.569
3. RERF-LC-KJ  0.585
4. NCI-H358  0.585
5. NCI-H1975  0.591
6. NCI-H650  0.641
7. NCI-H1563  0.685
8. EKVX  0.697
9. PC-3 [JPC-3]  0.72
10. LC-2-ad  0.769

Same assay, conditions: first compound 0.06325 µM

In order of rising relative viability:
1. NCI-H358  0.254
2. NCI-H1944  0.281
3. NCI-H1975  0.297
4. RERF-LC-KJ  0.397
5. ABC-1  0.43
6. EKVX  0.536
7. LC-2-ad  0.582
8. NCI-H650  0.592
9. NCI-H1563  0.648
10. PC-3 [JPC-3]  0.851

Same assay, conditions: first compound 0.2 µM

In order of falling relative viability:
1. PC-3 [JPC-3]  0.768
2. NCI-H1563  0.598
3. LC-2-ad  0.546
4. RERF-LC-KJ  0.433
5. EKVX  0.389
6. NCI-H650  0.372
7. ABC-1  0.349
8. NCI-H1975  0.244
9. NCI-H1944  0.195
10. NCI-H358  0.173

Compound: C1CCC(CC1)N(CCNCCC2=C3C(=C(C=C2)O)NC(=O)CO3)C(=O)CCNCCC4=CC(=C(C=C4)Cl)Cl [AZ505] + C[C@@H](Oc1cc(-c2cnn(C3CCNCC3)c2)cnc1N)c1c(Cl)ccc(F)c1Cl [Crizotinib] (partner 1 µM)
Test: as above
Details: first compound 0.08 µM
Procedure, shortened: as §1

In order of rising relative viability:
1. LC-2-ad  0.432
2. NCI-H358  0.566
3. NCI-H650  0.604
4. RERF-LC-KJ  0.769
5. EKVX  0.777
6. NCI-H1563  0.831
7. PC-3 [JPC-3]  0.885
8. NCI-H1975  0.891
9. ABC-1  1.01
10. NCI-H1944  1.12

Same assay, conditions: first compound 0.253 µM

In order of rising relative viability:
1. LC-2-ad  0.475
2. NCI-H358  0.572
3. NCI-H650  0.749
4. NCI-H1563  0.807
5. RERF-LC-KJ  0.848
6. PC-3 [JPC-3]  0.979
7. NCI-H1975  0.994
8. NCI-H1944  1.04
9. EKVX  1.05
10. ABC-1  1.12

Same assay, conditions: first compound 0.8 µM

In order of falling relative viability:
1. ABC-1  1.19
2. NCI-H1944  1.11
3. EKVX  0.926
4. PC-3 [JPC-3]  0.916
5. NCI-H1975  0.902
6. NCI-H1563  0.805
7. RERF-LC-KJ  0.774
8. NCI-H650  0.698
9. NCI-H358  0.551
10. LC-2-ad  0.438

Same assay, conditions: first compound 2.53 µM

In order of rising relative viability:
1. LC-2-ad  0.472
2. NCI-H358  0.536
3. NCI-H650  0.642
4. EKVX  0.798
5. NCI-H1975  0.836
6. RERF-LC-KJ  0.842
7. NCI-H1563  0.848
8. NCI-H1944  0.881
9. PC-3 [JPC-3]  0.94
10. ABC-1  1.21

Same assay, conditions: first compound 8 µM

In order of falling relative viability:
1. ABC-1  1.24
2. NCI-H1944  1.15
3. PC-3 [JPC-3]  1.03
4. EKVX  1.02
5. NCI-H1975  0.995
6. RERF-LC-KJ  0.833
7. NCI-H1563  0.809
8. NCI-H650  0.758
9. LC-2-ad  0.427
10. NCI-H358  0.371

Compound: C1CCC(CC1)N(CCNCCC2=C3C(=C(C=C2)O)NC(=O)CO3)C(=O)CCNCCC4=CC(=C(C=C4)Cl)Cl [AZ505] + CS(=O)(=O)CCNCc1ccc(-c2ccc3ncnc(Nc4ccc(OCc5cccc(F)c5)c(Cl)c4)c3c2)o1 [Lapatinib] (partner 2 µM)
Test: as above
Details: first compound 0.08 µM
Procedure, shortened: as §1

In order of rising relative viability:
1. EKVX  0.225
2. NCI-H358  0.408
3. PC-3 [JPC-3]  0.456
4. RERF-LC-KJ  0.767
5. NCI-H1975  0.773
6. NCI-H1944  0.811
7. NCI-H1563  0.836
8. NCI-H650  0.849
9. LC-2-ad  0.949

Same assay, conditions: first compound 0.253 µM

In order of falling relative viability:
1. ABC-1  1.1
2. LC-2-ad  0.957
3. NCI-H650  0.925
4. RERF-LC-KJ  0.923
5. NCI-H1563  0.882
6. NCI-H1975  0.82
7. NCI-H1944  0.8
8. NCI-H358  0.474
9. PC-3 [JPC-3]  0.455
10. EKVX  0.184

Same assay, conditions: first compound 0.8 µM

In order of rising relative viability:
1. EKVX  0.175
2. NCI-H358  0.416
3. PC-3 [JPC-3]  0.476
4. RERF-LC-KJ  0.846
5. NCI-H1975  0.858
6. NCI-H1944  0.9
7. LC-2-ad  0.92
8. NCI-H1563  0.998
9. ABC-1  1.11
10. NCI-H650  1.18

Same assay, conditions: first compound 2.53 µM

In order of falling relative viability:
1. ABC-1  1.12
2. NCI-H650  1.06
3. LC-2-ad  1
4. NCI-H1975  0.9
5. RERF-LC-KJ  0.87
6. NCI-H1563  0.865
7. NCI-H1944  0.76
8. PC-3 [JPC-3]  0.426
9. NCI-H358  0.371
10. EKVX  0.185

Same assay, conditions: first compound 8 µM

In order of falling relative viability:
1. ABC-1  1.23
2. NCI-H650  1.06
3. LC-2-ad  0.921
4. NCI-H1563  0.905
5. NCI-H1975  0.885
6. RERF-LC-KJ  0.795
7. NCI-H1944  0.759
8. PC-3 [JPC-3]  0.495
9. NCI-H358  0.435
10. EKVX  0.214
